Reference: US11219218B2, “Methods of enhancing algae production” (Boise State University, priority 2018, dated 2022)
Where two headings read alike, the source gives them in different places.

Tests used:
B. plicatilis [1] = conditions: for effect of elevated free ammonia exposure time on 24-hour rotifer survival: pH 9, exposure 0-12 hours; for mean rotifer densities over the eight-day experiment: f/2 and ADE media
Procedure: (§1) Five free ammonia exposure times were chosen (0, 1, 2, 6, and 12 hours) with the goal of identifying which times may lead to an optimal reduction of B. plicatilis populations without negatively affecting N. oculata growth. We also used a rotifer-free control to observe the growth of N. oculata with neither rotifers nor elevated free ammonia exposure relative to experimental treatments. We conducted this experiment in both defined media (f/2) and dairy wastewater (ADE) to observe any differences between media types. For the defined medium trial, we created culture mixtures containing f/2 in ASW, 0.01 M Tris base, N. oculata at approximately 1×10^6 cells mL^−1 and B. plicatilis at approximately 10 rotifers mL^−1. NH4Cl was added to this mixture to initiate the period of free ammonia exposure. Similarly, for the dairy wastewater trial, we created culture mixtures containing ASW, 0.01 M Tris base, N. oculata at approximately 1×10^6 cells mL^−1, and B. plicatilis at approximately 10 rotifers/mL. The initial cell density of N. oculata was meant to represent a high-density culture nearing early stationary phase, which also allowed for increases in cell density. The initial rotifer density was chosen to represent initial stages of a contamination event after exposure of the algal culture to colonizing rotifer pests, at which point contamination is detectable yet treatable. ADE was added to this mixture to initiate the period of free ammonia exposure. For both trials, pH was immediately adjusted to 9 for the 1, 2, 6, and 12 hour treatments and held at this pH for the designated exposure time. The 0 hour and control treatments were adjusted to pH 6.3-6.5 via CO2 addition prior to addition of the ammonium source, thereby eliminating any exposure to elevated free ammonia. […] Thus, all treatments within an experiment received the same amount of CO2 and the same amount of total NH3—N. Flasks were shaken and stirred once daily on a stir plate while pH was being adjusted to desired level. In this experiment, pH was measured and controlled in each treatment using American Marine Pinpoint pH controllers.
(§2) Samples for total NH3—N were collected at the beginning and end of the exposure time for each treatment in order to quantify potential loss of N from the system caused by volatilization of free ammonia. Densities of N. oculata and B. plicatilis were measured at the initial free ammonia exposure time, and every 24 hours thereafter for eight days. Live B. plicatilis were enumerated in triplicate 1 mL counts in a Sedgewick-Rafter counting chamber (Wildco item #EW-05491-64), and growth of N. oculata was tracked by both OD680 measurement and direct cell counts. Final ash free dry weight (AFDW) was measured on day eight for all replicates.
(§3) We chose this range in order to eliminate possible free ammonia inhibition after the designated exposure period while also staying within the pH range for optimal growth of N. oculata.

N. oculata [2] = conditions: for algal growth rate / final AFDW: co-culture with B. plicatilis; for final AFDW: day eight
Procedure: as §1, §2, §3

B. plicatilis [3] = system: B. plicatilis
N. oculata [4] = system: N. oculata
Brachionus rotifer = conditions: cited from earlier work
Scenedesmus obliquus = conditions: Abeliovich and Azov, 1976; cited from earlier work
Chlorella pyrenoidosa = conditions: Tan et al., 2015; cited from earlier work
Nannochloropsis oculata = conditions: Gutierrez et al., 2016, cited from earlier work
Chlorella sorokiniana = conditions: Gutierrez et al., 2016; cited from earlier work

## N [free ammonia, ammonia]
B. plicatilis [1]; ADE medium, 52.8 mg L^−1 free ammonia
  prediction formula for 24-hour B. plicatilis survival against exposure time (FIG. 3): ln(% survival)=4.768-0.2902*exposure time
B. plicatilis [1]; dairy ADE medium
  effect of elevated free ammonia exposure time on 24-hour rotifer survival: significantly decreased
B. plicatilis [1]; f/2 medium
  effect of elevated free ammonia exposure time on 24-hour rotifer survival: significantly decreased
B. plicatilis [1]; six-hour exposure time
  mean rotifer densities over the eight-day experiment: remained below the initial density
B. plicatilis [1]; twelve-hour exposure time
  mean rotifer densities over the eight-day experiment: remained below the initial density
B. plicatilis [1]; two hours or less of exposure, ADE medium
  rotifer density over the eight-day experiment: proliferated, with up to an order of magnitude increase in rotifer density
N. oculata [2]; 6-12 hours of elevated free ammonia, both media types
  effects on the alga Nannochloropsis oculata: no negative effects
N. oculata [2]; 6-hour exposure time
  algal growth rate: 0.70 ± 0.01 day⁻¹
  final AFDW: 0.37 ± 0.004 g/L
N. oculata [2]; 12-hour exposure time
  algal growth rate: 0.60 ± 0.06 day⁻¹
  final AFDW: 0.38 ± 0.004 g/L
B. plicatilis [3]; 5% ADE medium
  prediction formula for 24-hour rotifer survival against free ammonia concentration (FIG. 1A): ln(% survival)=3.606-0.0357*exposure time
B. plicatilis [3]; 5% dairy ADE, free ammonia 0.77-48.9 mg L^−1 (pH 7-9)
  relationship between initial free ammonia concentration and B. plicatilis survival after 24 hours: significant negative relationship
B. plicatilis [3]; ASW medium with NH4Cl, free ammonia 0.65-41.6 mg L^−1 (pH 7-9)
  relationship between initial free ammonia concentration and B. plicatilis survival after 24 hours: significant negative relationship
N. oculata [4]; ADE cultures
  effect of free ammonia concentration on final OD680 levels: no effect
N. oculata [4]; ADE medium
  effect of initial free ammonia on growth rates: no effect
N. oculata [4]; f/2 medium
  OD680 levels of N. oculata with increasing free ammonia levels: increased
  effect of initial free ammonia on growth rates: no effect
N. oculata [4]; f/2 or ADE media, any of the free ammonia levels tested, seven days
  inhibition of N. oculata: no observed inhibition
Brachionus rotifer; Schlüter and Groeneweg, 1985
  concentration that causes complete mortality: over 5 mg/L free NH3—N
Brachionus rotifer; de Araujo et al., 2000
  concentration that reduces Brachionus rotifer reproduction: ≥ 2.4 mg/L
Scenedesmus obliquus
  concentration tolerated without inhibition of photosynthesis or growth rate: up to 28 mg/L free NH3—N
Chlorella pyrenoidosa
  concentration tolerated without inhibition of photosynthesis or growth rate: up to 20 mg/L free NH3—N
Nannochloropsis oculata
  highest level tested, not inhibited: 16 mg free NH3—N
Nannochloropsis oculata; exposure to high free ammonia levels
  lipid content of N. oculata: not significantly altered
Chlorella sorokiniana
  highest level tested, not inhibited: 16 mg free NH3—N
